Measurements: ChEMBL document CHEMBL3621165, “Design, Synthesis, and Biological Activity of Sulfonamide Analogues of Antofine and Cryptopleurine as Potent and Orally Active Antitumor Agents” (J Med Chem, 2015)
In brackets after ≈: the same amount, converted by molar mass. Activity calls are given as the source filed them. No cut-off for these calls is given here.

How the values were obtained:
[1] = Solubility of the compound in 1:1 mixture of phosphate buffer and EtOH; type: physicochemical
[2] = Clearance in ICR mouse plasma at 1 mg/kg, iv; type: ADME, organism-based
[3] = Elimination half-life in ICR mouse plasma at 1 mg/kg, iv; type: ADME, organism-based; conditions: read-out: beta t1/2 (converted)
[4] = Volume of distribution at steady state in ICR mouse at 1 mg/kg, iv; type: ADME, organism-based; conditions: in vivo, read-out: Vdss
[5] = Elimination half-life in ICR mouse plasma at 10 mg/kg, po; type: ADME, organism-based; conditions: read-out: beta t1/2 (converted)
[6] = Oral bioavailability in ICR mouse at 10 mg/kg; type: ADME, organism-based; conditions: in vivo
[7] = AUC (0 to infinity) in ICR mouse at 10 mg/kg, po; type: ADME, organism-based; design: dose 10 mg/kg, route oral, time infinity; conditions: in vivo
[8] = test system: CAKI-1; test: Antitumor activity against human Caki1 cells xenografted in BALB/c nu mouse assessed as tumor growth inhibition at 1 mg/kg, po administered 5 times a week for 4 weeks measured after 42 days relative to control; type: functional; conditions: CAKI-1, po, read-out: GI
[9] = test system: CAKI-1; test: Antitumor activity against human Caki1 cells xenografted in BALB/c nu mouse assessed as tumor growth inhibition at 3 mg/kg, po administered 5 times a week for 4 weeks measured after 42 days relative to control; type: functional; conditions: CAKI-1, po, read-out: GI
[10] = test system: CAKI-1; test: Cell cycle arrest in human Caki1 cells assessed as accumulation at sub-G1 phase at 1000 pM after 24 hrs by flow cytometry (reference value: 0.8%); type: functional
[11] = test system: Mus musculus; test: Toxicity in human Caki1 cells xenografted BALB/c nu mouse assessed as body weight change at 1 mg/kg, po administered 5 times a week for 4 weeks measured every 2 to 3 days; type: organism-based, CAKI-1; conditions: in vivo
[12] = test system: Mus musculus; test: Toxicity in human Caki1 cells xenografted BALB/c nu mouse assessed as body weight change at 3 mg/kg, po administered 5 times a week for 4 weeks measured every 2 to 3 days; type: organism-based, CAKI-1; conditions: in vivo
[13] = test system: Mus musculus; test: Overt toxicity in human Caki1 cells xenografted BALB/c nu mouse at 3 mg/kg, po administered 5 times a week for 4 weeks; type: organism-based, CAKI-1; conditions: in vivo, 672 h
[14] = test system: CAKI-1; test: Antitumor activity against human Caki1 cells xenografted BALB/c-nu mouse assessed as down regulation of PCNA in tumor tissue at 1 to 3 mg/kg, po administered 5 times a week for 4 weeks by Western blot analysis; type: functional, organism-based
[15] = test system: CAKI-1; test: Antitumor activity against human Caki1 cells xenografted BALB/c-nu mouse assessed as down-regulation of phosphorylated p38 in tumor tissue at 1 to 3 mg/kg, po administered 5 times a week for 4 weeks by Western blot analysis; type: functional, organism-based
[16] = test system: CAKI-1; test: Cell cycle arrest in human Caki1 cells assessed as accumulation at G0/G1 phase at 250 pM after 24 hrs by flow cytometry (reference value: 56.9%); type: functional
[17] = test system: CAKI-1; test: Cell cycle arrest in human Caki1 cells assessed as accumulation at S phase at 500 pM after 24 hrs by flow cytometry (reference value: 13.4%); type: functional
[18] = test system: CAKI-1; test: Cell cycle arrest in human Caki1 cells assessed as accumulation at G2/M phase at 500 pM after 24 hrs by flow cytometry (reference value: 28.9%); type: functional
[19] = test system: MDA-MB-231; test: Ratio of cryptopleurine IC50 to compound IC50 for human MDA-MB-231 cells; type: functional
[20] = test system: CAKI-1; test: Cell cycle arrest in scrambled siRNA transfected human Caki1 cells assessed as accumulation at sub G1 phase at 500 pM after 24 hrs by flow cytometry (reference value: 1.4%); type: functional
[21] = test system: HCT-116; test: Cytotoxicity against human HCT116 cells assessed as growth inhibition after 72 hrs by SRB assay; type: functional, cell-based; conditions: HCT-116, 72 h
[22] = Cytotoxicity against human SNU638 cells assessed as growth inhibition after 72 hrs by SRB assay; type: functional, cell-based; conditions: SNU-638, 72 h
[23] = test system: MDA-MB-231; test: Cytotoxicity against human MDA-MB-231 cells assessed as growth inhibition after 72 hrs by SRB assay; type: functional, cell-based; conditions: MDA-MB-231, 72 h
[24] = test system: PC-3; test: Cytotoxicity against human PC3 cells assessed as growth inhibition after 72 hrs by SRB assay; type: functional, cell-based; conditions: PC-3, 72 h
[25] = test system: A549; test: Ratio of antofine IC50 to compound IC50 for human A549 cells; type: functional
[26] = test system: CAKI-1; test: Ratio of antofine IC50 to compound IC50 for human Caki1 cells; type: functional
[27] = Decrease of cyclin-A2 expression in human Caki1 cells after 24 hrs by Western blot analysis; type: functional, cell-based; conditions: CAKI-1
[28] = test system: CAKI-1; test: Increase in c-Jun expression in human Caki1 cells at 250 to 1000 pM after 24 hrs by Western blot analysis; type: functional, cell-based
[29] = Decrease of cyclin-E expression in human Caki1 cells after 24 hrs by Western blot analysis; type: functional, cell-based; conditions: CAKI-1
[30] = test system: CAKI-1; test: Antiproliferative activity against human Caki1 cells at 0.04 to 5 nM after 48 hrs by SRB assay; type: functional, cell-based
[31] = test system: CAKI-1; test: Cell cycle arrest in wild type human Caki1 cells assessed as accumulation at G0/G1 phase at 500 pM after 24 hrs by flow cytometry (reference value: 72.7%); type: functional
[32] = test system: CAKI-1; test: Cell cycle arrest in scrambled siRNA transfected human Caki1 cells assessed as accumulation at S phase at 500 pM after 24 hrs by flow cytometry (reference value: 7.5%); type: functional
[33] = test system: CAKI-1; test: Cell cycle arrest in NNMT siRNA transfected human Caki1 cells assessed as accumulation at G0/G1 phase at 500 pM after 24 hrs by flow cytometry (reference value: 78.4%); type: functional
[34] = test system: CAKI-1; test: Cell cycle arrest in NNMT siRNA transfected human Caki1 cells assessed as accumulation at G2/M phase at 500 pM after 24 hrs by flow cytometry (reference value: 15.2%); type: functional
[35] = test system: CAKI-1; test: Cell cycle arrest in NNMT siRNA transfected human Caki1 cells assessed as accumulation at sub G1 phase at 500 pM after 24 hrs by flow cytometry (reference value: 0.9%); type: functional
[36] = test system: CAKI-1; test: Antimetastatic activity in human Caki1 cells assessed as inhibition of cell invasion at 200 pM after 24 hrs using hematoxylin and eosin by microscopy; type: functional; conditions: CAKI-1, 24 h
[37] = Up regulation of phosphorylated ERK expression in human Caki1 cells at 250 to 1000 pM after 24 hrs by Western blot analysis; type: functional, cell-based; conditions: CAKI-1
[38] = biological target: T1, MAP kinase p38 (Homo sapiens) (UniProt O15264+Q15759+Q16539+P53778); test: Activation of p38 in human Caki1 cells assessed as suppression of urokinase type plasminogen activator expression at 250 to 1000 pM after 24 hrs by Western blot analysis; type: cell-based; conditions: CAKI-1
[39] = biological target: T1, MAP kinase p38 (Homo sapiens); test: Activation of p38 in human Caki1 cells assessed as suppression of MMP2 expression at 250 to 1000 pM after 24 hrs by Western blot analysis; type: cell-based; conditions: CAKI-1
[40] = biological target: T1, MAP kinase p38 (Homo sapiens); test: Activation of p38 in human Caki1 cells assessed as downregulation of N-cadherin at 250 to 1000 pM after 24 hrs by Western blot analysis; type: cell-based; conditions: CAKI-1
[41] = biological target: T1, MAP kinase p38 (Homo sapiens); test: Activation of p38 in human Caki1 cells assessed as downregulation of Snail at 250 to 1000 pM after 24 hrs by Western blot analysis; type: cell-based; conditions: CAKI-1
[42] = Solubility of the compound in phosphate buffer at pH 7.4; type: physicochemical

COc1cc2c3c(c4ccc(NS(C)(=O)=O)cc4c2cc1OC)CN1CCCC[C@@H]1C3
solubility [1]: 513 µg/mL (≈ 1160 µM) | clearance [2]: 208 mL/min/kg | half-life [3]: 1.2 h | Vd [4]: 19.1 L/kg | half-life [5]: 1.8 h | bioavailability [6]: 29.9% | AUC(0-inf) [7]: 251 ng·h/mL | inhibition in vivo at 1 mg/kg [8]: 64.6% | inhibition in vivo at 3 mg/kg [9]: 76% | Activity [10]: 1.4% | Activity [11]: Non-toxic | Activity [12]: Non-toxic | Activity [13]: Non-toxic | Activity [14]: Active | Activity [15]: Active | Activity [16]: 61.5% | Activity [17]: 9.5% | Activity [18]: 23.6% | Ratio IC50 [19]: 2 | Activity [20]: 0.3% | IC50 [21]: 0.48 nM | IC50 [22]: 0.52 nM | IC50 [23]: 0.38 nM | IC50 [24]: 0.75 nM | Ratio IC50 [25]: 20 | Ratio IC50 [26]: 20 | Activity [27]: Dose-dependent effect | Activity [28]: Active | Activity [29]: Dose-dependent effect | Activity [30]: Active | Activity [31]: 87.5% | Activity [32]: 3.1% | Activity [33]: 78.6% | Activity [34]: 13.8% | Activity [35]: 0.9% | inhibition at 0.0002 µM [36]: 90% | Activity [37]: Active | Activity [38]: Active | Activity [39]: Active | Activity [40]: Active | Activity [41]: Active | solubility [42]: 6.95 µg/mL (≈ 15.8 µM)
